Values quoted from earlier work in US20110207819A1, “Fat Emulsion for Artificially Feeding Seriously Ill Intensive Care Patients” (B. BRAUN MELSUNGEN AG, priority 2008, published 2011).

System: CIP/CIM
Details: intensified insulin therapy; intensive care patients

For insulin, the “decrease of the incidence of CIP/CIM” value is listed as 44%.
